In patent US10220048B2, “Compositions and methods for treating ocular diseases” (Aerpio Therapeutics, Inc., priority 2013, dated 2019):
“And” between values parts separate entries of the source, which are not always exact repeats. Equal values may be shown once. “Also recorded” adds a separate entry of the source.

Assays:
[1] = system: patients with diabetic macular edema; assay: Central Foveal Thickness by ocular coherence tomography in diabetic macular edema patients given the disclosed compound subcutaneously plus intravitreal anti-VEGF agent; type: in vivo, human
Procedure: The disclosed Figures represent a control or baseline study used as a benchmark for determining the effectiveness of the disclosed methods for treating ocular diseases (FIGS. 1 and 3) and studies directed to the disclosed methods. Described herein below, four patients with visual acuity loss due to diabetic macular edema (central retinal thickness [CRT] of more than 325 microns and best corrected visual acuity less than 70 letters) were treated with subcutaneous injections of 5 mg of the disclosed compound twice a day for 28 days and then observed for an additional two months (days 28 through 84). At any time during the course of the study, investigators could administer additional therapy consisting of intravitreal injection of an anti-VEGF agent, for example, ranibizumab, bevacizumab and/or aflibercept if considered by the investigator to be medically necessary. Retinal thickness as measured by ocular coherence tomography and best corrected visual acuity as measured by a standard vision test were assessed at regular intervals during the 28 day active treatment phase and through the 2 month post-treatment observation phase, (Screening, Day 1 [baseline], Day 7, Day 14, Day 21, Day 28, Day 42, Day 56 and Day 84). The main efficacy outcomes for the study were change in CRT and visual acuity over time with treatment. FIG. 2 depicts the results of a study wherein 4 patients received 5 mg of the disclosed compound subcutaneously twice daily for 28 days and subsequently were treated in one or both eyes (7 eyes total) with either ranibizumab (0.3 or 0.5 mg) or aflibercept (2 mg) by intravitreal injection at the discretion of the study investigator. […] The mean change in Central Foveal Thickness was −289 μm, approximately double the reduction seen 7 days to one month after ranibizumab injection in the benchmark study as depicted in FIG. 1. FIG. 5 represents the results of a single patient. The eye having the greater Central Foveal Thickness is chosen as the Study Eye. The patient from day one was given 5 mg of the disclosed compound subcutaneously twice daily. At week 3 (21 days, indicated by arrow) the fellow eye is treated with 0.5 mg of ranibizumab. At week 6 (42 days, indicated by arrow) the treated eye is treated with 0.5 mg of ranibizumab. […] Without wishing to be limited by theory, it is believed that when the fellow eye is treated with an injection of 0.5 mg of ranibizumab, the ranibizumab enters the study eye systemically. […] At week 6, the study eye is treated with an intravitreal injection of 0.5 mg of ranibizumab. As depicted in FIG. 5, by week 8, there is an overall reduction in CFT of approximately 690 μm, wherein the CFT of the subject eye is approximately 180 μm. Although the Fellow Eye began with less CFT than the study eye, nevertheless, treatment with ranibizumab at week 3 (day 21) produced a change in CFT of approximately 430 μm. […] FIG. 6 represents the results of a single patient. The eye having the greater Central Foveal Thickness is chosen as the Treated Eye (Study Eye). The patient from day one was given 5 mg of the disclosed compound subcutaneously twice daily. At week 3 (21 days, indicated by arrow) the fellow eye is rescued with 2 mg of aflibercept. […] At week 6 (42 days, indicated by arrow) the treated eye is rescued with 2 mg of aflibercept. […] The disclosed Figures represent a control or baseline study used as a benchmark for determining the effectiveness of the disclosed methods for treating ocular diseases (FIGS. 1 and 3) and studies directed to the disclosed methods. Described herein below, four patients with visual acuity loss due to diabetic macular edema (central retinal thickness [CRT] of more than 325 microns and best corrected visual acuity less than 70 letters) were treated with subcutaneous injections of 5 mg of the disclosed compound twice a day for 28 days and then observed for an additional two months (days 28 through 84). […]

[2] = system: patients with diabetic macular edema; assay: Best corrected visual acuity (letters) in diabetic macular edema patients given the disclosed compound subcutaneously plus intravitreal anti-VEGF agent; type: in vivo, human; conditions: 5 mg s.c. twice daily 28 days, then ranibizumab or aflibercept intravitreal; 14-28 days post anti-VEGF (FIG. 4)
Procedure: The disclosed Figures represent a control or baseline study used as a benchmark for determining the effectiveness of the disclosed methods for treating ocular diseases (FIGS. 1 and 3) and studies directed to the disclosed methods. Described herein below, four patients with visual acuity loss due to diabetic macular edema (central retinal thickness [CRT] of more than 325 microns and best corrected visual acuity less than 70 letters) were treated with subcutaneous injections of 5 mg of the disclosed compound twice a day for 28 days and then observed for an additional two months (days 28 through 84). At any time during the course of the study, investigators could administer additional therapy consisting of intravitreal injection of an anti-VEGF agent, for example, ranibizumab, bevacizumab and/or aflibercept if considered by the investigator to be medically necessary. Retinal thickness as measured by ocular coherence tomography and best corrected visual acuity as measured by a standard vision test were assessed at regular intervals during the 28 day active treatment phase and through the 2 month post-treatment observation phase, (Screening, Day 1 [baseline], Day 7, Day 14, Day 21, Day 28, Day 42, Day 56 and Day 84). The main efficacy outcomes for the study were change in CRT and visual acuity over time with treatment. […]

HPTP-β = HPTP-β (Homo sapiens (Human), UniProt P23467); assay: HPTP-β inhibition (IC50); type: biochemical; conditions: read-out: HPTPβ IC50
[3] = single patient (FIG. 5), 5 mg s.c. twice daily, study eye given 0.5 mg ranibizumab at week 6
[4] = single patient, aflibercept protocol (FIG. 6)

HPTP-β, sequence (P23467 23-1997): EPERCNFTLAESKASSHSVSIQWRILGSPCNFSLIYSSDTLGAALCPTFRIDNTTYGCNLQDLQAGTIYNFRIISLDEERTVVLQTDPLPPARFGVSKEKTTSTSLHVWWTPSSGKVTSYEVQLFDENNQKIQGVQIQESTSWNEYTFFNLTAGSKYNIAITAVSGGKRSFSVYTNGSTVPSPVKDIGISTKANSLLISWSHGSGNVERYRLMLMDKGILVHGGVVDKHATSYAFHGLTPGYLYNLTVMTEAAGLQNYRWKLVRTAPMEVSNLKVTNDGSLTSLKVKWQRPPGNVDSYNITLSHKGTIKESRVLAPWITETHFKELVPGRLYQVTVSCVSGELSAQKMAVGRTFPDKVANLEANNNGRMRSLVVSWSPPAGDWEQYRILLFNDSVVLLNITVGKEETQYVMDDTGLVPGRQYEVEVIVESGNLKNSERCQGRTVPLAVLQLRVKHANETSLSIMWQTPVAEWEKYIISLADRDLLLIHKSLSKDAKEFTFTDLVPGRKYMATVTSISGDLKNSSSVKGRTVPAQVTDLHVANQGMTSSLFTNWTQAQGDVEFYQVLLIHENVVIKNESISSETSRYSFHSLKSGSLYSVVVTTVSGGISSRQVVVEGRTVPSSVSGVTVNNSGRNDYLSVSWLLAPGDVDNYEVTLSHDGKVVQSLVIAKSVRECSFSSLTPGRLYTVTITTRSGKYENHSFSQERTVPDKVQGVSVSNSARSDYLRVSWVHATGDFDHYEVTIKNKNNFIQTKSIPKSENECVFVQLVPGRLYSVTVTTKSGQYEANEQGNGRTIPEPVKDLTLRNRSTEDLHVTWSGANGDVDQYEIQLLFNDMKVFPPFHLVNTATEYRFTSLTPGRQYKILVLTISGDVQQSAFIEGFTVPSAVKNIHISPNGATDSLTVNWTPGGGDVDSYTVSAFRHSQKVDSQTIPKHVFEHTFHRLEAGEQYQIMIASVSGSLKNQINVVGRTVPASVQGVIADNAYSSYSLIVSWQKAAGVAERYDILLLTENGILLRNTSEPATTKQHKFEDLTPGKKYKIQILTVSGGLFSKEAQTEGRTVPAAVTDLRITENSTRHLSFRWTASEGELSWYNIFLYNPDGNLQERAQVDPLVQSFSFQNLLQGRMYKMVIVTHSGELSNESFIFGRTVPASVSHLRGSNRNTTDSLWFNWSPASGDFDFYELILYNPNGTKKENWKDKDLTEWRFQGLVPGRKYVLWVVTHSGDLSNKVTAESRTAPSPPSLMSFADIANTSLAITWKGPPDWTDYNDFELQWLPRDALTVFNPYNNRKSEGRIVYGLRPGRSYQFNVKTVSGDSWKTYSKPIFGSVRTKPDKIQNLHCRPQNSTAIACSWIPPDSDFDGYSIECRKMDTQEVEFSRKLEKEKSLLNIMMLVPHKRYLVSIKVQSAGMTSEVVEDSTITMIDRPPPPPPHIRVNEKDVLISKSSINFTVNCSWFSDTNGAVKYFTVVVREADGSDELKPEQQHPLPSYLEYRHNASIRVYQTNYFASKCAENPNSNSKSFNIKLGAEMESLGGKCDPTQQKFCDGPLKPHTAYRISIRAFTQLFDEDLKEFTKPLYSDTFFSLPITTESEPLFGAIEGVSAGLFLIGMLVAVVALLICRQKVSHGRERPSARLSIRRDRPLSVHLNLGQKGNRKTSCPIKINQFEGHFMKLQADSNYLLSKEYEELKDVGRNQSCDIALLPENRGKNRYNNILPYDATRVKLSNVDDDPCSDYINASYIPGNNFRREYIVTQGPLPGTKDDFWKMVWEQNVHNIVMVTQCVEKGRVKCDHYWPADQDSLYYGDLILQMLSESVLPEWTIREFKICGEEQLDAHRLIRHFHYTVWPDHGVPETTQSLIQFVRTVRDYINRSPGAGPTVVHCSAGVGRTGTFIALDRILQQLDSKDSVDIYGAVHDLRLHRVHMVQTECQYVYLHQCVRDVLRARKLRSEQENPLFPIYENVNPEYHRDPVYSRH

IC50 (HPTP-β) [pM]	Compound	Central Foveal Reduction, individual patient eye ([1]; 5 mg s.c. twice daily 28 days, then ranibizumab (0.3 or 0.5 mg) or aflibercept (2 mg) intravitreal, 14-28 days post anti-VEGF, 7 eyes (FIG. 2))	mean change in Central Foveal Thickness ([1]; 5 mg s.c. twice daily 28 days, then ranibizumab or aflibercept intravitreal, 14-28 days post anti-VEGF, 7 eyes (FIG. 2)) [μm]	CFT reduction relative to reduction after ranibizumab in benchmark study ([1]; combination versus FIG. 1 benchmark)	CFT of study eye at week 6 ([1]; single patient (FIG. 5), 5 mg s.c. twice daily, before ranibizumab to study eye)	change in CFT, fellow eye, after ranibizumab at week 3 ([1]; single patient (FIG. 5), 5 mg s.c. twice daily, fellow eye given 0.5 mg ranibizumab at day 21, by week 4)	reduction in CFT, study eye, day 21 to day 28 ([1]; single patient (FIG. 5), 5 mg s.c. twice daily, fellow eye given 0.5 mg ranibizumab at week 3)	CFT of study eye at week 8 [1, 3]	overall reduction in CFT, study eye, by week 8 [1, 3]	CFT reduction, fellow eye, after rescue ([1]; single patient (FIG. 6), 5 mg s.c. twice daily, fellow eye rescued with 2 mg aflibercept)	CFT reduction, study eye, after rescue ([1]; single patient (FIG. 6), 5 mg s.c. twice daily, study eye rescued with 2 mg aflibercept at week 6)	reduction of CFT from onset of the study, non-treated eye [1, 4] [μm]	reduction of CFT from onset of the study, study eye [1, 4]	mean change in Visual Acuity [2] [letters]
	COC(=O)N[C@@H](Cc1ccccc1)C(=O)N[C@@H](Cc1ccc(NS(=O)(=O)O)cc1)c1csc(-c2cccs2)n1 [the disclosed compound, 4-{(S)-2-[(S)-2-(methoxycarbonylamino)-3-phenylpropanamido]-2-[2-(thiophen-2-yl)thiazol-4-yl]ethyl}phenylsulfamic acid]	50-100 μm and 150-200 μm and 200-250 μm and 300-350 μm and 350-400 μm and 450-500 μm	−289	approximately double	approximately 775 μm	approximately 430 μm and 350 μm	approximately 300 μm; also recorded: approximately 250 μm	approximately 180 μm; also recorded: approximately 225 μm	approximately 690 μm; also recorded: approximately 500 μm	approximately 400 μm	approximately 310 μm; also recorded: approximately 300 μm	~280	approximately 300 μm	9
< 2	COC(=O)N[C@@H](Cc1ccccc1)C(=O)N[C@@H](Cc1ccc(NS(=O)(=O)O)cc1)c1nc(-c2ccccc2)cs1 [AA21, 4-{(S)-2-[(S)-2-(Methoxycarbonylamino)-3-phenylpropanamido]-2-(4-phenylthiazol-2-yl)ethyl}phenylsulfamic acid]													
